The values that follow come from article PMC4575386, “Intact cell mass spectrometry as a rapid and specific tool for the differentiation of toxic effects in cell-based ecotoxicological test systems” (Analytical and Bioanalytical Chemistry, 2015).

Data set [1] concerns RTL-W1 cells. As to the kind of experiment: Intact cell MALDI-TOF mass spectrometry (IC-MS) profiles after 24 h toxin exposure. It counts as cell-based, rainbow trout (Oncorhynchus mykiss). As to conditions: for number of IC-MS peaks that changed significantly through the toxin exposure: 24 h exposure. On the procedure:
For IC-MS studies, cells were seeded in T25 cell culture flasks with a total amount of 1.7 × 10^6 cells. […] Toxin exposure was performed according to the viability studies.
After 24 h of toxin exposure, cells were harvested and washed with PBS at 2000×g, 4 °C for 5 min (Eppendorf 5424, Hamburg, Germany) based on the method detailed by Dong et al.. The total number of cells was calculated using an automated cell counter (Cedex XS Analyzer, Roche Innovatis, Bielefeld, Germany). The cell pellets were stored at −20 °C until IC-MS analysis.
According to the calculated cell number, stock solutions with 5 × 10^4 cells per μL as well as further dilutions of 2 × 10^4 and 1 × 10^4 cells per μL were prepared with PBS und stored on ice prior to IC-MS.
Samples and matrix solutions were deposited on the MALDI-TOF MS target layer by layer and successively air dried. First, a thin layer of saturated SA in ethanol was applied to an Opti-TOF 384 well insert (Kratos Analytical, Manchester, UK), followed by 0.5 μL of the sample solution and, finally, covered with 0.5 μL of SA matrix (38 mg/ml in water/ACN/TFA 40/60/0.2 (v/v/v)) which was presented by Munteanu et al.. All sample dilutions were spotted in duplicate.
MALDI-TOF mass spectra were obtained using an Axima Confidence mass spectrometer (Shimadzu Biotech, Manchester, UK) equipped with a 337-nm nitrogen laser. The filter for regulation of the laser firing power was set to 65. To generate representative profiles, a total of 600 laser shots were accumulated and averaged for each sample. Protein mass fingerprints were obtained in the linear, positive mode at a maximal laser repetition rate of 50 Hz within a mass range of 2000 to 20,000 Da.
MALDI-TOF MS data processing was performed using the LaunchpadTM v. 2.9 software (Shimadzu Biotech). A set of 10 peaks that occurred in the majority of spectra and were evenly distributed across the whole mass range were used for internal calibration.
For peak acquisition, an average smoothing method was performed with a smoothing filter width of 50 channels and a baseline filter width of 100 channels. […] For each spotted sample, a list of spectrum peaks was generated and analyzed statistically. The masses of equally treated samples were matched and means and standard deviations of ion abundances calculated. […] For principal component analysis (PCA), relative ion abundances were calculated and data normalized according to the control treatments. […]
The 15 distinctive peaks between m/z 4562 and m/z 15,292 were analyzed for each toxin treatment: The arithmetic mean of the ion abundances was calculated from the six replicates and the direction of deviation from the control treatment was determined and tested for significance (paired two-sample t test) (Table 2).

A short description of a further data set: in vitro. As to conditions: rainbow trout (Oncorhynchus mykiss). The source says: (§1) Subsequently, medium was replaced with exposure medium.
Another data set has as its system RTL-W1. Details: method as in PMID 24416442. As to conditions: RTL-W1, in preparation for micronucleus assays; cited from earlier work.
The subject of data set [2] is RTL-W1 cells. The data set can be described thus: Viability studies (CellTiter-Blue® and CellTiter-Glo®, not told apart). The conditions noted are these: 24 h.
Excerpt: as §1
In general terms: Resazurin is reduced to fluorescent resorufin, in cell work by metabolically active cells.

The subject of data set [3] is RTL-W1 cells. The conditions noted are these: 24 h exposure, L15/ex medium.
Protocol: (§2) In this study, RTL-W1, a liver cell line from rainbow trout (Oncorhynchus mykiss) was used. […] The cells were routinely grown according to the method detailed by Hinger et al. [23] at 20 °C in Leibovitz L15 medium (Biochrom, Berlin, Germany) supplemented with 10 % fetal calf serum (Biochrom), 5 mM L-alanyl-L-glutamin (Biochrom) and 1 % antibiotics (Gibco by Life Technologies). Cells were grown to approximately 90 % confluency before passaging for experimental use.
(§3) Viability studies were performed in 96-well assay plates. Cells were seeded at a density of 20,000 viable cells/well and cultivated for approximately 24 h. Subsequently, medium was replaced with exposure medium. […]
(§4) After 24 h, the cultures were assayed for viability according to the manufacturer’s instructions (Promega). After a final incubation time of 4 h for CellTiter-Blue® Viability Assay, fluorescence was recorded at 540/595 nm on Tecan infinite 200 Pro microtiter plate reader (Tecan, Männedorf, Switzerland). The integration time for luminescence detection (CellTiter-Glo® Luminescent Cell Viability Assays) on Tecan GENios Plus microtiter plate reader (Tecan) was 500 ms per well.
(§5) Statistical analysis and EC50 calculations were performed using GraphPad Prism (Graphpad Software, San Diego, USA). […] EC50 values were calculated with a sigmoid dose–response fit and automatic outlier detection.
The test system of data set [4] is RTL-W1 cells. The conditions noted are these: 24 h exposure, L15/ex medium. The source holds these as a separate data set.
Protocol: as §2, §3, §4, §5
Data set [5] relates to RTL-W1 cells. Details: method as in earlier work. The conditions noted are these: cited from earlier work.
Data set [6] relates to RTL-W1 cells. Details: method as in earlier work. As to conditions: cited from earlier work. The source holds these as a separate data set.
A short description of data set [7]: Solubility in the culture medium (observation). It counts as physicochemical. The conditions noted are these: high concentrations resulted in precipitation.

“And” between values parts separate entries of the source, which are not always exact repeats. Equal values may be shown once.

Turning to `c1ccc2nc3ccccc3cc2c1` [Acridine, acridine], the “number of IC-MS peaks that changed significantly through the toxin exposure” value in the data set with RTL-W1 cells [1] was “seven”. The viability (usually a read-out of living cells in per cent, often relative to untreated cells) at 24 h, 150 µM in the data set “in vitro” is approximately 50%. In addition, the “EC20, neutral red retention assay” value with RTL-W1 was 40.9 mg/L and 228 μM.
Take `O=S(=O)([O-])[O-].[Cu+2]` [Copper sulfate, copper sulfate]: the IC-MS profile behavior entry in the data set on RTL-W1 cells [1] (2 mg/L, lowest concentration) was “apoptotic behavior”. Besides, the “number of IC-MS peaks that changed significantly through the toxin exposure” value in the data set with RTL-W1 cells [1] is given as “eight”. In addition, in the data set on RTL-W1 cells [2] (9 mg/L), the viability impairment entry was “roughly 50%”. In addition, the “EC50 cytotoxicity, CellTiter-Blue®, 24 h” value in the data set with RTL-W1 cells [3] came out at 8.23 µg/mL. In addition, in the data set with RTL-W1 cells [4], the “EC50 cytotoxicity, CellTiter-Glo®, 24 h” value was determined as 10.08 µg/mL. The “EC50 (redox activity), literature value” in the data set on RTL-W1 cells [5] is 3.69 µg/mL. For the same compound, the “EC50 (membrane integrity), literature value” in the data set on RTL-W1 cells [6] was 6.56 µg/mL.
On to `O=c1cc(-c2ccccc2)oc2ccc3ccccc3c12` [BNF, β-naphthoflavone], for which the “number of IC-MS peaks that changed significantly through the toxin exposure” value with RTL-W1 cells [1] is listed as “nine”. The compound also showed a viability at 24 h, 50 µM in “in vitro” of approximately 50%. The “concentrations with significant decrease in viability” value with RTL-W1 cells [2] (vs control) was 10 µM and 20 µM. Besides, the “solubility in the culture medium” value in data set [7] is on record as “low solubility”.
